Source: patent US20120115877A1, “Facially Amphiphilic Compounds, Compositions, And Uses Thereof In Treating Cancer” (POLYMEDIX, INC., priority 2010, published 2012)

What was measured:
Format in all cases: cell-based, human
MDA-MB-31/ATCC = experiment: NCI-60 screen, Breast Cancer; details: 10 μM, MDA-MB-231/ATCC
Method: (§1) Several compounds were tested at single concentrations (10 μM) against 59 different human tumor cell lines, representing leukemia, melanoma and cancers of the lung, colon, brain, ovary, breast, prostate, and kidney (see, Table 3). The human tumor cell lines of the cancer screening panel were grown in RPMI 1640 medium containing 5% fetal bovine serum and 2 mM L-glutamine. For a typical screening experiment, cells were inoculated into 96 well microtiter plates in 100 μL at plating densities ranging from 5,000 to 40,000 cells/well depending on the doubling time of individual cell lines. After cell inoculation, the microtiter plates were incubated at 37° C., 5% CO2, 95% air and 100% relative humidity for 24 hours prior to addition of the compounds.
(§2) After 24 hours, two plates of each cell line were fixed in situ with TCA, to represent a measurement of the cell population for each cell line at the time of drug addition (Tz). Compounds were solubilized in dimethyl sulfoxide at 400-fold the desired final maximum test concentration and stored frozen prior to use. At the time of drug addition, an aliquot of frozen concentrate was thawed and diluted to twice the desired final maximum test concentration with complete medium containing 50 μg/ml gentamicin. Additional four, 10-fold or ½ log serial dilutions were made to provide a total of five compound concentrations plus control. Aliquots of 100 μl of these different drug dilutions were added to the appropriate microtiter wells already containing 100 μl of medium, resulting in the required final compound concentrations.
(§3) Following drug addition, the plates were incubated for an additional 48 hours at 37° C., 5% CO2, 95% air, and 100% relative humidity. For adherent cells, the assay was terminated by the addition of cold TCA. Cells were fixed in situ by the gentle addition of 50 μl of cold 50% (w/v) TCA (final concentration, 10% TCA) and incubated for 60 minutes at 4° C. The supernatant was discarded, and the plates were washed five times with tap water and air dried. Sulforhodamine B (SRB) solution (100 μl) at 0.4% (w/v) in 1% acetic acid was added to each well, and plates were incubated for 10 minutes at room temperature. After staining, unbound dye was removed by washing five times with 1% acetic acid and the plates were air dried. Bound stain was subsequently solubilized with 10 mM trizma base, and the absorbance was read on an automated plate reader at a wavelength of 515 nm. For suspension cells, the methodology was the same except that the assay was terminated by fixing settled cells at the bottom of the wells by gently adding 50 μl of 80% TCA (final concentration, 16% TCA). Using the seven absorbance measurements (time zero, (Tz), control growth, (C), and test growth in the presence of drug at the five concentration levels (Ti)), the percentage growth was calculated at each of the compound concentrations levels. Percentage growth inhibition was calculated as:
(§4) [(Ti−Tz)/(C−Tz)]×100 for concentrations for which Ti>/=Tz
(§5) [(Ti−Tz)/Tz]×100 for concentrations for which Ti<Tz.
(§6) Three dose response parameters were calculated for each compound. Growth inhibition of 50% (GI50) was calculated from [(Ti−Tz)/(C−Tz)]×100=50, which is the compound concentration resulting in a 50% reduction in the net protein increase (as measured by SRB staining) in control cells during the compound incubation. The compound concentration resulting in total growth inhibition (TGI) was calculated from Ti=Tz. The LC50 (concentration of compound resulting in a 50% reduction in the measured protein at the end of the compound treatment as compared to that at the beginning) indicating a net loss of cells following treatment was calculated from [(Ti−Tz)/Tz]×100=−50. Values were calculated for each of these three parameters if the level of activity was reached; however, if the effect was not reached or was exceeded, the value for that parameter was expressed as greater or less than the maximum or minimum concentration tested.

MCF7 = experiment: NCI-60 screen, Breast Cancer; details: 10 μM
Method: as §1, §2, §3, §4, §5, §6

LOX IMVI = experiment: NCI-60 screen, Melanoma; details: 10 μM
Method: as §1, §2, §3, §4, §5, §6

MALME-3M = experiment: NCI-60 screen, Melanoma; details: 10 μM
Method: as §1, §2, §3, §4, §5, §6

UACC-62 = experiment: NCI-60 screen, Melanoma; details: 10 μM
Method: as §1, §2, §3, §4, §5, §6

SK-MEL-2 = experiment: NCI-60 screen, Melanoma; details: 10 μM
Method: as §1, §2, §3, §4, §5, §6

SK-MEL-28 = experiment: NCI-60 screen, Melanoma; details: 10 μM
Method: as §1, §2, §3, §4, §5, §6

SK-MEL-5 = experiment: NCI-60 screen, Melanoma; details: 10 μM
Method: as §1, §2, §3, §4, §5, §6

UACC-257 = experiment: NCI-60 screen, Melanoma; details: 10 μM
Method: as §1, §2, §3, §4, §5, §6

MDA-MB-435 = experiment: NCI-60 screen, Melanoma; details: 10 μM
Method: as §1, §2, §3, §4, §5, §6

SNB-19 = experiment: NCI-60 screen, CNS Cancer; details: 10 μM
Method: as §1, §2, §3, §4, §5, §6

SNB-75 = experiment: NCI-60 screen, CNS Cancer; details: 10 μM
Method: as §1, §2, §3, §4, §5, §6

U251 = experiment: NCI-60 screen, CNS Cancer; details: 10 μM
Method: as §1, §2, §3, §4, §5, §6

SF-295 = experiment: NCI-60 screen, CNS Cancer; details: 10 μM
Method: as §1, §2, §3, §4, §5, §6

SF-268 = experiment: NCI-60 screen, CNS Cancer; details: 10 μM
Method: as §1, §2, §3, §4, §5, §6

HCC-2998 = experiment: NCI-60 screen, Colon Cancer; details: 10 μM
Method: as §1, §2, §3, §4, §5, §6

HCT-15 = experiment: NCI-60 screen, Colon Cancer; details: 10 μM
Method: as §1, §2, §3, §4, §5, §6

COLO 205 = experiment: NCI-60 screen, Colon Cancer; details: 10 μM
Method: as §1, §2, §3, §4, §5, §6

ACHN = experiment: NCI-60 screen, Renal Cancer; details: 10 μM
Method: as §1, §2, §3, §4, §5, §6

A498 = experiment: NCI-60 screen, Renal Cancer; details: 10 μM
Method: as §1, §2, §3, §4, §5, §6

TK-10 = experiment: NCI-60 screen, Renal Cancer; details: 10 μM
Method: as §1, §2, §3, §4, §5, §6

CAKI-1 = experiment: NCI-60 screen, Renal Cancer; details: 10 μM
Method: as §1, §2, §3, §4, §5, §6

RXF 393 = experiment: NCI-60 screen, Renal Cancer; details: 10 μM
Method: as §1, §2, §3, §4, §5, §6

UO-31 = experiment: NCI-60 screen, Renal Cancer; details: 10 μM
Method: as §1, §2, §3, §4, §5, §6

SN12C = experiment: NCI-60 screen, Renal Cancer; details: 10 μM
Method: as §1, §2, §3, §4, §5, §6

SF-539 = experiment: NCI-60 screen, CNS Cancer; details: 10 μM
Method: as §1, §2, §3, §4, §5, §6

Compound	Percent Growth (MDA-MB-31/ATCC)	Percent Growth (MCF7)	Percent Growth (LOX IMVI)	Percent Growth (MALME-3M)	Percent Growth (UACC-62)	Percent Growth (SK-MEL-2)	Percent Growth (SK-MEL-28)	Percent Growth (SK-MEL-5)	Percent Growth (UACC-257)	Percent Growth (MDA-MB-435)	Percent Growth (SNB-19)	Percent Growth (SNB-75)	Percent Growth (U251)	Percent Growth (SF-295)	Percent Growth (SF-268)	Percent Growth (HCC-2998)	Percent Growth (HCT-15)	Percent Growth (COLO 205)	Percent Growth (ACHN)	Percent Growth (A498)	further results
NCCc1cc(Br)cc(C#Cc2cccc(C#Cc3cc(Br)cc(CCN)c3)c2)c1 [Compound A]	4.31%	−89.84%	−76.91%	106.8%	26.03%	3.515%	79.76%	80.5%	68.25%	−16.19%	27.06%	−2.087%	−64.65%	3.17%	61.55%	54.09%	11.61%	1.203%	−46.91%	84.01%	Percent Growth (TK-10): 8.048%; Percent Growth (CAKI-1): 70.66%; Percent Growth (RXF 393): −26.13%; Percent Growth (UO-31): 37.26%; Percent Growth (SN12C): 22.8%
N=C(N)NCCCCC(=O)Nc1cc(C(F)(F)F)cc(NC(=O)Nc2ccc(NC(=O)Nc3cc(C(F)(F)F)cc(NC(=O)CCCCNC(=N)N)c3OC3CCNC3)cc2)c1OC1CCNC1 (centres unmarked) [Compound B]	73.02%	44.41%	59.57%	83.13%	75.91%	60.98%	68.29%	50.91%	75.89%	48.12%	49.16%	19.48%	37.71%	38.86%	49.93%	75.82%	61.39%	55.41%	62.45%	66.45%	Percent Growth (SF-539): 30.8%; Percent Growth (TK-10): 60.45%; Percent Growth (CAKI-1): 56.42%; Percent Growth (RXF 393): 87.84%; Percent Growth (UO-31): 45.67%; Percent Growth (SN12C): 64.8%
N=C(N)NCCCCC(=O)Nc1cc(C(F)(F)F)cc(NC(=O)c2cc(C(=O)Nc3cc(C(F)(F)F)cc(NC(=O)CCCCNC(=N)N)c3SCCN)ncn2)c1SCCN [Compound C]	81.52%	10.27%	50.64%	63.62%	55.93%	54.29%	61.39%	34.55%	61.31%	35.56%	47.25%	22.47%	31.28%	39.81%	53.24%	54.2%	33.27%	−73.2%	53.08%	69.5%	Percent Growth (SF-539): 70.3%; Percent Growth (TK-10): 38.3%; Percent Growth (CAKI-1): 47.81%; Percent Growth (RXF 393): 78.06%; Percent Growth (UO-31): 73.64%; Percent Growth (SN12C): 65.97%
